Active and inactive are the calls of the source.

Kd data for 11 molecules are collected here from ChEMBL document CHEMBL3991601, “The target landscape of clinical kinase drugs” (Science, 2017).

Assay [1] has as its target Serine/threonine-protein kinase SIK2 (Homo sapiens, UniProt Q9H0K1).
Assay [2] has as its target T1, Ribosyldihydronicotinamide dehydrogenase [quinone] (Homo sapiens, UniProt P16083).
T1 sequence (P16083 whole entry): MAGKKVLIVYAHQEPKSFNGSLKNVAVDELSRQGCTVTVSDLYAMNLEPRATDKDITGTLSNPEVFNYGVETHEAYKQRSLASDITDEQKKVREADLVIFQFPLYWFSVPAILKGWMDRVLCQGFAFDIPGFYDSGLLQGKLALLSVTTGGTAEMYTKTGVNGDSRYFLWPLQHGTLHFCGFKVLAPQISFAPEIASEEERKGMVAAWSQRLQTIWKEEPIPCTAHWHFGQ

Assay [3] concerns the target Insulin receptor (Homo sapiens, UniProt P06213).
Assay [4] concerns the target T2, Peroxisomal acyl-coenzyme A oxidase 3 (Homo sapiens, UniProt O15254).
T2 sequence (O15254 whole entry): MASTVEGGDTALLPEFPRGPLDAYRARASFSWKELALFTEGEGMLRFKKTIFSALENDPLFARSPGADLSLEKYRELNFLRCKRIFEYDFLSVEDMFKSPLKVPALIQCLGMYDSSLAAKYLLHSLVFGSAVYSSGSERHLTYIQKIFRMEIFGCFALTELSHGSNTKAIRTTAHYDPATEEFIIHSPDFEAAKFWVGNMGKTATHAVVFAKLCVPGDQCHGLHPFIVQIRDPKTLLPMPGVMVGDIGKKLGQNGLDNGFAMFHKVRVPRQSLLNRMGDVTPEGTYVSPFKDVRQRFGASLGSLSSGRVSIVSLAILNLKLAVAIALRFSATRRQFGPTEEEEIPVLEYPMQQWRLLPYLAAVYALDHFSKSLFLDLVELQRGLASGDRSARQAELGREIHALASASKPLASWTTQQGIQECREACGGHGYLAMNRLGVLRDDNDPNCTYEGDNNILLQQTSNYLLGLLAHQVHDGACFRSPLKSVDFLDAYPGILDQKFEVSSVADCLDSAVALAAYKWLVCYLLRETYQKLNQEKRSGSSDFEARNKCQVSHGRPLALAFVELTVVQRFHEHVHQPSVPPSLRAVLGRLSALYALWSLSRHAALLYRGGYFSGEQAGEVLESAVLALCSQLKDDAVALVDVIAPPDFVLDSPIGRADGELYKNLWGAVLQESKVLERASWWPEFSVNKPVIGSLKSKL

Assay [5] addresses Elongation factor Tu, mitochondrial (Homo sapiens, UniProt P49411).
Assay [6] has as its target Calcium/calmodulin-dependent protein kinase type II subunit gamma (Homo sapiens, UniProt Q13555).
The target in assay [7] is T3, Dynamin-like GTPase OPA1, mitochondrial (Homo sapiens, UniProt O60313).
T3 sequence (O60313 whole entry): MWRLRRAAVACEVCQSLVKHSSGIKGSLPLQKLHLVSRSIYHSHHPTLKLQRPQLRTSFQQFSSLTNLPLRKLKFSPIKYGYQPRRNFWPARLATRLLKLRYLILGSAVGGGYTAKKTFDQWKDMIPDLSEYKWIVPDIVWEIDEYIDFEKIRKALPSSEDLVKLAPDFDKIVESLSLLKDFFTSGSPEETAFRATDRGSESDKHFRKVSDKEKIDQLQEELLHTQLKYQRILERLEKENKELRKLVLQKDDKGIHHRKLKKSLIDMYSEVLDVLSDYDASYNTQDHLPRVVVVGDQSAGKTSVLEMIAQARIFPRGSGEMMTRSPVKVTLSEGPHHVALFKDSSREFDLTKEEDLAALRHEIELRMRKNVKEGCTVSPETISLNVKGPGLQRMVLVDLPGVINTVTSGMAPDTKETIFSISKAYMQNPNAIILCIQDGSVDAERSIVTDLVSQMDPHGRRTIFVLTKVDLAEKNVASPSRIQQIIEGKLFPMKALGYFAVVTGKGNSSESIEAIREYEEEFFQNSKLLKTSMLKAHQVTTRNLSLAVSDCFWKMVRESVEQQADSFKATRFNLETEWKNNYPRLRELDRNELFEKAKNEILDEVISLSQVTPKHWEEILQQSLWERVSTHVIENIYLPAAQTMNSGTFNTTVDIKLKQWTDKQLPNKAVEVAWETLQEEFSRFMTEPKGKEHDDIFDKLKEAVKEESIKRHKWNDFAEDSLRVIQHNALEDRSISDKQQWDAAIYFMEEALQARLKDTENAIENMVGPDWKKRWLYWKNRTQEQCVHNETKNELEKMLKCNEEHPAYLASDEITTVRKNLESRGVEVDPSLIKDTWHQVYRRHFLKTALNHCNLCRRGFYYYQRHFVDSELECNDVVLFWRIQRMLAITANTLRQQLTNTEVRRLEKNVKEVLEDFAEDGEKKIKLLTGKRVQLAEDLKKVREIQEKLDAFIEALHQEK

The target of assay [8] is Midasin (Homo sapiens, UniProt Q9NU22).
Assay [9] deals with T4, Serine/threonine-protein kinase TBK1 (Homo sapiens, UniProt Q9UHD2).
T4 sequence (Q9UHD2 whole entry): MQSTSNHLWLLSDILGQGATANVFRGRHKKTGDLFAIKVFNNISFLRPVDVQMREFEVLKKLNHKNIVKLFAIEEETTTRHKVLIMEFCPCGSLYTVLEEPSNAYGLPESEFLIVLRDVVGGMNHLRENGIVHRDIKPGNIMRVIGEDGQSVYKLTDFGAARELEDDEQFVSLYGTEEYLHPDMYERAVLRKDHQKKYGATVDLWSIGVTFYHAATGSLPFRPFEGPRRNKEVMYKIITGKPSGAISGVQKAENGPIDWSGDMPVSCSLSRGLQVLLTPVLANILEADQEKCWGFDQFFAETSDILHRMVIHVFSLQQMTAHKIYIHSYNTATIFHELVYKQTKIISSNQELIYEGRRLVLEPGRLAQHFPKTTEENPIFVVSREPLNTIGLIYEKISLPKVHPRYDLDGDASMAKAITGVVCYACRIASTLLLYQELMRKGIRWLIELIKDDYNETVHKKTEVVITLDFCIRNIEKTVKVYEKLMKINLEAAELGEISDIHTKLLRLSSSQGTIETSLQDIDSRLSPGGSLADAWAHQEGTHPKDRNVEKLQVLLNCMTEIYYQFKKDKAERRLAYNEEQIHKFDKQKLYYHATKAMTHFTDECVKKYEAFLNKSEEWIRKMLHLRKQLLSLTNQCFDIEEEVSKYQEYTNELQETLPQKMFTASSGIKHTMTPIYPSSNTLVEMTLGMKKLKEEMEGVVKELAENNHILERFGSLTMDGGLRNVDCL
Further: in the data inactive means no Kd found up to 30 µM.

Calcium/calmodulin-dependent protein kinase type II subunit gamma, sequence (Q13555 whole entry): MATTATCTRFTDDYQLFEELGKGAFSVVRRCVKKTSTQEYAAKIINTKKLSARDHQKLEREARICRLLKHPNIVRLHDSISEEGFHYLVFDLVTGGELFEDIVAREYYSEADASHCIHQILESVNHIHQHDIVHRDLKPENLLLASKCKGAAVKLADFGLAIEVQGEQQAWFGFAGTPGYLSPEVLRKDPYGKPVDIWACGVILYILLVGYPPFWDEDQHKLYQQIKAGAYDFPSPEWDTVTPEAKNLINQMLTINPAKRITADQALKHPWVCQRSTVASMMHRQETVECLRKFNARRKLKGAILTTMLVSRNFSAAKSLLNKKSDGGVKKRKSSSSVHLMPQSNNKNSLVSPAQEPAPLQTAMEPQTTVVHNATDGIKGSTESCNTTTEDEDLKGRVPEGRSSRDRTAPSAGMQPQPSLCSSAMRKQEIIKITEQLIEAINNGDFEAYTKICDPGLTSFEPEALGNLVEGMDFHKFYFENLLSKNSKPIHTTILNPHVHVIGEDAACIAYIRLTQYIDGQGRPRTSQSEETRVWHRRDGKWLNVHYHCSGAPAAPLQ
Serine/threonine-protein kinase SIK2, sequence (Q9H0K1 whole entry): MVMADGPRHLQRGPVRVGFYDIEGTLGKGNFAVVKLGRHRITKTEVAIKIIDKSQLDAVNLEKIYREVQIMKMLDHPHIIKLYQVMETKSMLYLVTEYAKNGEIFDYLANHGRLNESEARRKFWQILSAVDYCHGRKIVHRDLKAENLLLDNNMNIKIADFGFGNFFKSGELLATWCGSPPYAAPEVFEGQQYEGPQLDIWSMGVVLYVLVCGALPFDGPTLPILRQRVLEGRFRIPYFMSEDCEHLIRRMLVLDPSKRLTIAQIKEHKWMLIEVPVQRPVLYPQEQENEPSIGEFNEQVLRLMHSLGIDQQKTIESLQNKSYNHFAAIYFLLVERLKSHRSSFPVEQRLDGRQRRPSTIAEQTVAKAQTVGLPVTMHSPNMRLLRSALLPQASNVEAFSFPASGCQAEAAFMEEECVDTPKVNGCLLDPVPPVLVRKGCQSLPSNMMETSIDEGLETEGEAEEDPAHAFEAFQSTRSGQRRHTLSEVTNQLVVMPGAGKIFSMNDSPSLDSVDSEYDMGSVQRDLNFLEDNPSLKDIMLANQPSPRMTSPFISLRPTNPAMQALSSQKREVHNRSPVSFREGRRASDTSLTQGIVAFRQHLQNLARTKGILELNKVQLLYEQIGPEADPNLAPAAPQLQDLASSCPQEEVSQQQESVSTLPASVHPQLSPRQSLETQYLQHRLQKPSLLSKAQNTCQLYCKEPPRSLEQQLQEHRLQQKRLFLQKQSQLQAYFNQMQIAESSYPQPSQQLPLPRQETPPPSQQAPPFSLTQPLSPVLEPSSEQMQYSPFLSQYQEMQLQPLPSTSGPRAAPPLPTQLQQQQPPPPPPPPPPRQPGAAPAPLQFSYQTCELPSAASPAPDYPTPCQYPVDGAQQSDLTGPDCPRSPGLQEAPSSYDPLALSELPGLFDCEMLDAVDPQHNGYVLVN
Insulin receptor, sequence (P06213 28-758 limits assumed): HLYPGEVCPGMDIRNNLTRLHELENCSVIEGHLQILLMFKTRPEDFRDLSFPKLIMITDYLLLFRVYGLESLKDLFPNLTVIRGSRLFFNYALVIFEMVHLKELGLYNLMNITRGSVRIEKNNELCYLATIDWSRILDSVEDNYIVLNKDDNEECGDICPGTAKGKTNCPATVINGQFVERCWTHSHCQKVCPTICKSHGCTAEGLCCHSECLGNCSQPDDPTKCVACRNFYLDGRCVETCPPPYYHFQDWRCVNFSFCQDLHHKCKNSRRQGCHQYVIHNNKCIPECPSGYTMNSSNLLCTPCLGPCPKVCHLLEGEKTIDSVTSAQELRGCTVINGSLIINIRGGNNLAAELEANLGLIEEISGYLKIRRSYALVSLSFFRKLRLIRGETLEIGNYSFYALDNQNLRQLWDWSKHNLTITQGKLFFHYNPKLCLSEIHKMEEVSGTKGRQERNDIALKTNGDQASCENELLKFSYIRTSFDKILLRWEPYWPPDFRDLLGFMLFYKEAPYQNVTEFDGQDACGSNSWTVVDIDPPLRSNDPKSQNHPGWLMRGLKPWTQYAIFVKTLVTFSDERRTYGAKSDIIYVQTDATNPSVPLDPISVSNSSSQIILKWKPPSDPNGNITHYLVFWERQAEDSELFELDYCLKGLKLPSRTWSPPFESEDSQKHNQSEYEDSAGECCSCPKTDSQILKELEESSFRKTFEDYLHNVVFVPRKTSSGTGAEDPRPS
Insulin receptor, sequence (P06213 763-1382 limits assumed): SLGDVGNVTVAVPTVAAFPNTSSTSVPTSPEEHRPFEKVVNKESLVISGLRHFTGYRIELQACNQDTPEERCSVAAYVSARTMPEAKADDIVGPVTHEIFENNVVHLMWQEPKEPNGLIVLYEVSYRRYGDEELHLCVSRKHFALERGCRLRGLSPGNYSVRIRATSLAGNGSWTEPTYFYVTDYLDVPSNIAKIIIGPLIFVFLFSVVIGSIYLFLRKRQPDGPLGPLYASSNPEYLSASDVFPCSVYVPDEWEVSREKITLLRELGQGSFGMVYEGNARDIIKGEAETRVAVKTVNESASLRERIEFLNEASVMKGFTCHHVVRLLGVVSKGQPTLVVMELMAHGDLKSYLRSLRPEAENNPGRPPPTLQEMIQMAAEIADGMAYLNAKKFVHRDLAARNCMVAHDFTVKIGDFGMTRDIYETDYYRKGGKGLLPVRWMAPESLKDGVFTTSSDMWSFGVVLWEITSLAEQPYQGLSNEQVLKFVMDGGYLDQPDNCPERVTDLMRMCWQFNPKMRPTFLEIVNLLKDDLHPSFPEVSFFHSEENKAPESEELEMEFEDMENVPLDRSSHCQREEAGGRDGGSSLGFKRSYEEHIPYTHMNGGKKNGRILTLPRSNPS

As for `CC[C@H](Nc1ncnc2[nH]cnc12)c1nc2cccc(F)c2c(=O)n1-c1ccccc1` [IDELALISIB], the Kd in assay [1], in assay [2], in assay [3], in assay [4], in assay [5] and in [6] was > 30 µM (inactive) each time. Also, the Kd in [7], in assay [8] and in assay [9] was > 30 µM (inactive) each time.

Consider `COC(=O)N[C@@H](C)CNc1nccc(-c2cn(C(C)C)nc2-c2cc(Cl)cc(NS(C)(=O)=O)c2F)n1` [ENCORAFENIB], for which the Kd in assay [1], in assay [2], in [3], in [4], in assay [5] and in [6] was > 30 µM (inactive) in each case. Further, the Kd in [7], in assay [8] and in assay [9] was > 30 µM (inactive) throughout.

As to `O=c1sn(-c2cccc3ccccc23)c(=O)n1Cc1ccccc1` [TIDEGLUSIB], the Kd in assay [1], in assay [2], in assay [3], in assay [4], in assay [5] and in assay [6] was > 30 µM (inactive) in each case. The Kd in [7], in assay [8] and in [9] was > 30 µM (inactive) in each case.

As for `COC(=O)[C@@]1(O)C[C@H]2O[C@]1(C)n1c3ccccc3c3c4c(c5c6ccccc6n2c5c31)C(=O)NC4` [K-252A], the Kd (in general, a measure of binding affinity in units of concentration) in [1] is 0.058 µM (active); in assay [2], 4.03 µM (active); in assay [3] it was > 30 µM (inactive); in assay [4] it was > 30 µM (inactive); in [5], > 30 µM (inactive); in assay [6], 0.173 µM (active). Also, the Kd in assay [7] was > 30 µM (inactive); in assay [8], > 30 µM (inactive); in assay [9], 1.16 µM (active).

Turning to `O=C(c1ccc(F)c(F)c1Nc1ccc(I)cc1F)N1CC(O)([C@@H]2CCCCN2)C1` [COBIMETINIB], the Kd in [1], in assay [2], in assay [3], in assay [4], in assay [5] and in assay [6] was > 30 µM (inactive) in each case. The Kd in assay [7], in assay [8] and in [9] was > 30 µM (inactive) in each case.

Consider `Cc1ccc(S(=O)(=O)Nc2nc3ccccc3nc2Nc2ccc3nsnc3c2)cc1`, for which the Kd in assay [1], in assay [2], in [3], in assay [4], in assay [5] and in assay [6] was > 30 µM (inactive) each time. Also, the Kd in [7], in [8] and in assay [9] was > 30 µM (inactive) in each case.

For the molecule `Cn1cc(-c2ccc(F)c(C(F)(F)F)c2)nc1C1CCN(c2ncnc3[nH]ncc23)CC1` [LY-2584702], the Kd in assay [1], in assay [2], in assay [3], in assay [4], in assay [5] and in assay [6] was > 30 µM (inactive) throughout. For the same molecule, the Kd in assay [7], in assay [8] and in assay [9] was > 30 µM (inactive) in each case.

On to `CN(C)C(=O)c1cc2cnc(Nc3ccc(N4CCNCC4)cn3)nc2n1C1CCCC1` [RIBOCICLIB], for which the Kd in [1] was 2.49 µM (active); in assay [2], > 30 µM (inactive); in assay [3], > 30 µM (inactive); in assay [4], > 30 µM (inactive); in assay [5], > 30 µM (inactive); in assay [6], 0.247 µM (active). Besides, the Kd in assay [7], in [8] and in [9] was > 30 µM (inactive) each time.

For `O=C(Nc1ccc(-c2ccnc(Nc3ccc(N4CCOCC4)cc3)n2)cc1)C1CCCN1` (centres undefined) [XL-019], the Kd in assay [1] is 0.3 µM (active); in assay [2], > 30 µM (inactive); in [3], > 30 µM (inactive); in [4] it was > 30 µM (inactive); in assay [5], > 30 µM (inactive); in [6], > 30 µM (inactive). Further, the Kd in assay [7] is > 30 µM (inactive); in assay [8], > 30 µM (inactive); in assay [9], 0.561 µM (active).

For `CNC(=O)CN1CCC(Oc2cc3c(Nc4cccc(Cl)c4F)ncnc3cc2OC)CC1` [SAPITINIB], the Kd in [1], in [2], in assay [3], in assay [4], in assay [5] and in [6] was > 30 µM (inactive) each time. Besides, the Kd in assay [7], in assay [8] and in [9] was > 30 µM (inactive) throughout.

Turning to `Cc1cc([C@@H](C)Nc2ccccc2C(=O)O)c2nc(N3CCOCC3)cc(=O)n2c1` [AZD-6482], the Kd in assay [1], in assay [2], in assay [3], in assay [4], in assay [5] and in assay [6] was > 30 µM (inactive) throughout. For the same molecule, the Kd in [7], in [8] and in assay [9] was > 30 µM (inactive) each time.
